Test results published in patent US11529319B2, “Methods and compositions for treating neurological conditions” (priority 2017, dated 2022).
Entries after “also recorded” stand apart in the source; their conditions may differ.

Legend:
Mef2c-het mice [1] = assay: Open field test (locomotor activity); format: in vivo, mouse; conditions: chronic treatment, 30-minute test
Description: (§1) Mef2c heterozygous knockout (Mef2c-het) mice were created by crossing mice carrying the conventional exon 2-deleted allele of Mef2c (Mef2c^Δ2) with their WT littermates. All procedures for maintaining and using these mice were approved by the Institutional Animal Care and Use Committee (IACUC) at the Sanford Burnham Prebys Medical Discovery Institute. In this study, only male mice were used for the behavioral assays to insure uniformity (either with or without drug treatment). Chronic treatment with memantine, NitroSynapsin (both at 4.6 μmol/kg body weight) or vehicle (PBS) was administered via i.p. injection, twice a day for at least 3 months, starting at ˜2.5 weeks of age. This age was chosen because mice are still juveniles and thus treatment could begin in human at an equivalent stage.
Locomotor activity was measured in polycarbonate cages (42×22×20 cm) placed into frames (25.5×47 cm) mounted with two levels of photocell beams at 2 and 7 cm above the bottom of the cage (San Diego Instruments, San Diego, Calif.). These two sets of beams allowed recording of both horizontal (locomotion) and vertical (rearing) behavior. A thin layer of bedding material was applied to the bottom of the cage. Mice were tested for 30 or 120 min depending on the exact test.

Mef2c-het mice [2] = conditions: mouse, in vivo
Description: as §1, with “stage. […]” for “stage.”
For extracellular field recordings, concentric, bipolar tungsten electrodes were used to activate Schaffer collateral/commissural (SC) fibers in the hippocampal CA1 region. […] For baseline recordings, slices were stimulated at 0.033 Hz for 20 min at stimulation intensities of 30-40% of those used to elicit the largest measured fEPSP amplitude. […] Data were sampled at 5 kHz and analyzed using the Clampfit 10 program (Molecular Devices).
Synaptic activity was recorded from dentate gyrus (DG) granule neurons using the whole-cell voltage-clamp technique. […]

Tsc2+/- mice [3] = assay: Quantitative confocal immunohistochemistry of synaptophysin (SY38) in hippocampus; format: in vivo, mouse; conditions: i.p. loading 92 μmol/kg then 4.6 μmol/kg twice daily, two and a half days
Description: To determine the effects of […] antagonists on the brain histology of Tsc2^+/- mice, quantitative confocal immunohistochemistry was used to analyze coronal brain slices from 3-month-old wild-type (WT) and Tsc2^+/- mice that had been treated for two and a half days with vehicle, memantine or NitroSynapsin. Tsc2+/- mice on the C57Bl/6J background received via the intraperitoneal route either vehicle or a loading dose of 92 μmol/kg of memantine or NitroSynapsin, followed by 4.6 μmol/kg of drug twice daily for two-and-a-half-days, with the last dose 3 hours prior to the behavioral training session (for a total of five drug injections). This dosing regimen yields an effective concentration of drug at NMDARs in the brain of 1-10 μM.

Tsc2+/- mice [4] = assay: Fear conditioning test; format: in vivo, mouse; conditions: two-and-a-half-day treatment, last dose 3 hours before training
Description: To determine the effects of eNMDAR antagonists on the brain histology of Tsc2^+/− mice, quantitative confocal immunohistochemistry was used to analyze coronal brain slices from 3-month-old wild-type (WT) and Tsc2^+/− mice that had been treated for two and a half days with vehicle, memantine or NitroSynapsin. Tsc2+/− mice on the C57Bl/6J background received via the intraperitoneal route either vehicle or a loading dose of 92 μmol/kg of memantine or NitroSynapsin, followed by 4.6 μmol/kg of drug twice daily for two-and-a-half-days, with the last dose 3 hours prior to the behavioral training session (for a total of five drug injections). This dosing regimen yields an effective concentration of drug at NMDARs in the brain of 1-10 μM.
Fear conditioning tests were performed on three-month-old Tsc2^+/+ and Tsc2^+/− mice to explore the effects of eNMDAR antagonists on anxiety, and learning and memory deficits in Tsc2^+/− mice. Vehicle, memantine or NitroSynapsin were administered for two and a half days, with the last dose of drug occurring 3-hours prior to the first training session. […] Freezing time of three-month-old WT and Tsc2^+/− transgenic mice treated with vehicle, memantine or NitroSynapsin in fear-conditioning trials. […] Values are mean+s.e.m. (n=7-12 mice per group). […]

[5] = system: MeCP2 knockout (KO) mouse model of Rett syndrome; assay: Rotarod test; format: in vivo; conditions: MeCP2 KO mice
Procedure: Mice were placed on the stationary cylinder and the cylinder then slowly accelerated to 10 revolutions/min. The total time at 10 rpm before a fall from the cylinder was recorded.

effect on EPSCs in WT mice (Mef2c-het mice [2]): no effects
effect on LTP in WT mice (Mef2c-het mice [2]): no effects
SMILES: CCC12CC3(N)CC(CC)(C1)CC(O[N+](=O)[O-])(C3)C2 [NitroSynapsin]
open field center time / center activity (Mef2c-het mice [1]): rescued by chronic treatment with NitroSynapsin; also recorded: rescued by treatment with N
synaptophysin (SY38) staining in hippocampus (% area) (Tsc2+/- mice [3]): all improved; also recorded: significantly more staining; also recorded: reversed the synaptic loss; also recorded: raised the synaptic signal to WT levels
context discrimination (freezing time, training vs novel context) (Tsc2+/- mice [4]): all improved; also recorded: normalizing context discrimination; also recorded: improved the ability to discriminate context in Tsc2^+/− mice to normal WT levels; also recorded: normalized context discrimination
rotarod performance (time at 10 rpm before a fall) [5]: improved motor behavior; also recorded: significantly improved motor performance
